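Grown in 96-well plates, cells were treated for 48 hours with each compound at five concentrations. Insufficient inhibition: endpoint recorded as highest concentration tested. TGI is the concentration that stops growth completely.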
How the values were obtained:
Experiment in all cases: NCI anticancer screen, dose series, 48 h
786-0 renal = tested on: 786-0 renal
A498 renal = tested on: A498 renal
A549 NSCLC = tested on: A549 NSCLC
ACHN renal = tested on: ACHN renal
BT-549 breast = tested on: BT-549 breast
CAKI-1 renal = tested on: CAKI-1 renal
CCRF-CEM leukemia = tested on: CCRF-CEM leukemia
COLO 205 colon = tested on: COLO 205 colon
DU-145 prostate = tested on: DU-145 prostate
HCC-2998 colon = tested on: HCC-2998 colon
HCT-116 colon = tested on: HCT-116 colon
HCT-15 colon = tested on: HCT-15 colon
HL-60(TB) leukemia = tested on: HL-60(TB) leukemia
HOP-62 NSCLC = tested on: HOP-62 NSCLC
HOP-92 NSCLC = tested on: HOP-92 NSCLC
HT29 colon = tested on: HT29 colon
IGROV1 ovarian = tested on: IGROV1 ovarian
K-562 leukemia = tested on: K-562 leukemia
KM12 colon = tested on: KM12 colon
LOX IMVI melanoma = tested on: LOX IMVI melanoma
M14 melanoma = tested on: M14 melanoma
MALME-3M melanoma = tested on: MALME-3M melanoma
MCF7 breast = tested on: MCF7 breast
MDA-MB-231 breast = tested on: MDA-MB-231 breast
MDA-MB-435 = tested on: MDA-MB-435
MDA-N = tested on: MDA-N
MOLT-4 leukemia = tested on: MOLT-4 leukemia
NCI-H226 lung = tested on: NCI-H226 lung
NCI-H23 lung = tested on: NCI-H23 lung
NCI-H460 lung = tested on: NCI-H460 lung
NCI/ADR-RES ovarian = tested on: NCI/ADR-RES ovarian
OVCAR-3 ovarian = tested on: OVCAR-3 ovarian
OVCAR-4 ovarian = tested on: OVCAR-4 ovarian
OVCAR-5 ovarian = tested on: OVCAR-5 ovarian
OVCAR-8 ovarian = tested on: OVCAR-8 ovarian
PC-3 prostate = tested on: PC-3 prostate
RPMI-8226 leukemia = tested on: RPMI-8226 leukemia
SF-268 CNS = tested on: SF-268 CNS
SF-539 CNS = tested on: SF-539 CNS
SK-MEL-2 melanoma = tested on: SK-MEL-2 melanoma
SK-MEL-28 melanoma = tested on: SK-MEL-28 melanoma
SK-MEL-5 melanoma = tested on: SK-MEL-5 melanoma
SK-OV-3 ovarian = tested on: SK-OV-3 ovarian
SN12C renal = tested on: SN12C renal
SNB-19 CNS = tested on: SNB-19 CNS
SNB-75 CNS = tested on: SNB-75 CNS
SR leukemia = tested on: SR leukemia
SW-620 colon = tested on: SW-620 colon
T-47D breast = tested on: T-47D breast
U251 CNS = tested on: U251 CNS
UACC-257 melanoma = tested on: UACC-257 melanoma
UACC-62 melanoma = tested on: UACC-62 melanoma
EKVX NSCLC = tested on: EKVX NSCLC
HS 578T breast = tested on: HS 578T breast
NCI-H522 lung = tested on: NCI-H522 lung
RXF 393 renal = tested on: RXF 393 renal
SF-295 CNS = tested on: SF-295 CNS
TK-10 renal = tested on: TK-10 renal

C[C@H]1C(OCCOC2O[C@@H]3O[C@@]4(C)CC[C@H]5[C@H](C)CCC([C@H]2C)[C@@]35O4)O[C@@H]2O[C@@]3(C)CC[C@H]4[C@H](C)CCC1[C@@]24O3 (stereo partly drawn)
TGI (786-0 renal): > 100 µM | TGI (A498 renal): > 100 µM | TGI (A549 NSCLC): > 100 µM | TGI (ACHN renal): > 100 µM | TGI (BT-549 breast): > 100 µM | TGI (CAKI-1 renal): > 100 µM | TGI (CCRF-CEM leukemia): 82.5 µM | TGI (COLO 205 colon): 37.7 µM | TGI (DU-145 prostate): 74.3 µM | TGI (HCC-2998 colon): 43.7 µM | TGI (HCT-116 colon): 78.6 µM | TGI (HCT-15 colon): > 100 µM | TGI (HL-60(TB) leukemia): 74.9 µM | TGI (HOP-62 NSCLC): > 100 µM | TGI (HOP-92 NSCLC): > 100 µM | TGI (HT29 colon): > 100 µM | TGI (IGROV1 ovarian): 90.6 µM | TGI (K-562 leukemia): > 100 µM | TGI (KM12 colon): > 100 µM | TGI (LOX IMVI melanoma): 57.5 µM | TGI (M14 melanoma): > 100 µM | TGI (MALME-3M melanoma): 41.5 µM | TGI (MCF7 breast): > 100 µM | TGI (MDA-MB-231 breast): 75.1 µM | TGI (MDA-MB-435): > 100 µM | TGI (MDA-N): > 100 µM | TGI (MOLT-4 leukemia): > 100 µM | TGI (NCI-H226 lung): > 100 µM | TGI (NCI-H23 lung): > 100 µM | TGI (NCI-H460 lung): > 100 µM | TGI (NCI/ADR-RES ovarian): > 100 µM | TGI (OVCAR-3 ovarian): > 100 µM | TGI (OVCAR-4 ovarian): > 100 µM | TGI (OVCAR-5 ovarian): > 100 µM | TGI (OVCAR-8 ovarian): > 100 µM | TGI (PC-3 prostate): > 100 µM | TGI (RPMI-8226 leukemia): > 100 µM | TGI (SF-268 CNS): > 100 µM | TGI (SF-539 CNS): > 100 µM | TGI (SK-MEL-2 melanoma): 42.3 µM | TGI (SK-MEL-28 melanoma): > 100 µM | TGI (SK-MEL-5 melanoma): 32.2 µM | TGI (SK-OV-3 ovarian): > 100 µM | TGI (SN12C renal): 52.6 µM | TGI (SNB-19 CNS): > 100 µM | TGI (SNB-75 CNS): 81.7 µM | TGI (SR leukemia): > 100 µM | TGI (SW-620 colon): > 100 µM | TGI (T-47D breast): 37.5 µM | TGI (U251 CNS): > 100 µM | TGI (UACC-257 melanoma): > 100 µM | TGI (UACC-62 melanoma): > 100 µM

COc1ccc(C2SC(N)=Nc3c2c(C)nn3C(=O)c2ccc(Cl)cc2)cc1 (stereo not drawn)
TGI (786-0 renal): > 10 µM | TGI (A549 NSCLC): > 10 µM | TGI (ACHN renal): > 10 µM | TGI (BT-549 breast): > 10 µM | TGI (CAKI-1 renal): > 10 µM | TGI (CCRF-CEM leukemia): > 10 µM | TGI (COLO 205 colon): > 10 µM | TGI (DU-145 prostate): > 10 µM | TGI (EKVX NSCLC): > 10 µM | TGI (HCC-2998 colon): > 10 µM | TGI (HCT-116 colon): > 10 µM | TGI (HCT-15 colon): > 10 µM | TGI (HL-60(TB) leukemia): > 10 µM | TGI (HOP-62 NSCLC): > 10 µM | TGI (HOP-92 NSCLC): > 10 µM | TGI (HS 578T breast): > 10 µM | TGI (HT29 colon): > 10 µM | TGI (IGROV1 ovarian): > 10 µM | TGI (K-562 leukemia): > 10 µM | TGI (KM12 colon): > 10 µM | TGI (LOX IMVI melanoma): > 10 µM | TGI (M14 melanoma): > 10 µM | TGI (MALME-3M melanoma): > 10 µM | TGI (MCF7 breast): > 10 µM | TGI (MDA-MB-231 breast): > 10 µM | TGI (MDA-MB-435): > 10 µM | TGI (MDA-N): > 10 µM | TGI (MOLT-4 leukemia): > 10 µM | TGI (NCI-H226 lung): > 10 µM | TGI (NCI-H23 lung): > 10 µM | TGI (NCI-H460 lung): > 10 µM | TGI (NCI-H522 lung): > 10 µM | TGI (NCI/ADR-RES ovarian): > 10 µM | TGI (OVCAR-3 ovarian): > 10 µM | TGI (OVCAR-4 ovarian): > 10 µM | TGI (OVCAR-5 ovarian): > 10 µM | TGI (OVCAR-8 ovarian): > 10 µM | TGI (PC-3 prostate): > 10 µM | TGI (RPMI-8226 leukemia): > 10 µM | TGI (RXF 393 renal): > 10 µM | TGI (SF-268 CNS): > 10 µM | TGI (SF-295 CNS): > 10 µM | TGI (SF-539 CNS): > 10 µM | TGI (SK-MEL-2 melanoma): > 10 µM | TGI (SK-MEL-28 melanoma): > 10 µM | TGI (SK-MEL-5 melanoma): > 10 µM | TGI (SK-OV-3 ovarian): > 10 µM | TGI (SN12C renal): > 10 µM | TGI (SNB-19 CNS): > 10 µM | TGI (SNB-75 CNS): > 10 µM | TGI (SW-620 colon): > 10 µM | TGI (T-47D breast): > 10 µM | TGI (TK-10 renal): > 10 µM | TGI (U251 CNS): > 10 µM | TGI (UACC-257 melanoma): > 10 µM | TGI (UACC-62 melanoma): > 10 µM

Reference: PubChem BioAssay (NCI)
